According to patent US20110229559A1, “Drug Release From Nanoparticle-Coated Capsules” (University of South Australia, priority 2006, published 2011):

Assays:
[1] = format: physicochemical
Experimental: FIG. 10 is a graph showing DBP release profiles in 900 ml MQ water: pure DBP added: 1.1 mg/100 ml and DBP 0.1% wt in PDMS emulsion droplets (φ=0.01), where ⋄ bare liquid PDMS droplets; □ pure DBP; Δ pure DBP with hydrophilic silica nanoparticles; ◯ pure DBP with hydrophobic silica nanoparticles; * PDMS droplets coated by hydrophilic silica (10^−2 M NaCl); x PDMS droplets coated by hydrophobic silica nanoparticles (10^−4 M NaCl); + PDMS droplets coated by hydrophobic silica nanoparticles (10^−1 M NaCl); the dotted line corresponds to the maximal DBP concentration that can be achieved in the dissolution medium;
FIG. 11 is a graph of DBP release profiles in 900 ml MQ water, pure DBP added: 2.8 mg/100 ml and DBP (0.25% wt) in PDMS emulsion droplets (φ=0.01): ⋄ bare liquid PDMS droplets; □ pure DBP; Δ pure DBP with hydrophilic silica nanoparticles; ◯ pure DBP with hydrophobic silica nanoparticles; * PDMS droplets coated by hydrophilic silica nanoparticles (10^−2 M NaCl); x PDMS droplets coated by hydrophobic silica nanoparticles (10^−4 M NaCl); + PDMS droplets coated by hydrophobic silica nanoparticles (10-1 M NaCl); dotted line correspond to the maximal DBP concentration that can be achieved in the dissolution medium;
However, the dissolution rate is increased when DBP is incorporated into PDMS emulsion droplets.
Similar trends of increased solubility rate occur when the total DBP concentration is well above the solubility limit (2.8 mg/100 ml) (FIG. 11). The observed increase in solubility of DBP is even more evident giving rise to supersaturated solutions. The intensity and duration of the “supersaturation” effect is much more pronounced for hydrophobic silica coated droplets. For hydrophilic particles, the peak in the soluble DBP concentration is at a maximum after 2 hours and then subsequently the soluble amount of DBP decreases within the next 6 hours and eventually reduces back to the solubility limit (FIG. 11).

[2] = DBP release from cross-linked PDMS emulsion droplets (bare or silica nanoparticle-coated) into MilliQ water; format: physicochemical
Experimental: (§1) FIG. 12 is a graph showing DBP release profiles from cross-linked PDMS emulsion droplets (φ=0.01) containing 0.025 wt % DBP, 900 ml MQ water as dissolution medium, where ⋄ bare PDMS droplets and PDMS droplets coated by hydrophobic silica nanoparticles: […]10^−4M NaCl; Δ10^−3M NaCl; ◯10^−1 M NaCl;
as §1, with “FIG. 13” for “FIG. 12”, “showing Ln ([…]) versus time for drug” for “showing DBP”, “where ◯” for “where ⋄”, “silica nanoparticles;” for “silica nanoparticles:”
as §1, with “15” for “12”, “0.25” for “0.025”, “DBP in emulsions,” for “DBP,”, “[…]10^−4 M” for “[…]10^−4M”, “Δ10^−3 M” for “Δ10^−3M”
(§2) DBP was incorporated into the PDMS droplets during the synthesis step outlined in Example 3. A modification of the method reported by Obey, T. M. and Vincent, B., (1994), Journal of Colloid Interface Science, 163:454-463 and Goller, M. I. et al., (1997), Physiochemical and Engineering Aspects, 123-124 and 183-193 (without dialysis) was employed (herein incorporated by reference). PDMS droplets were prepared according to Example 3. A further batch of cross-linked PDMS droplets were prepared using the same procedure as for liquid droplets except that the mixtures of monomer and cross-linking trimer DEDMS:TEMS (tritethoxymethylsilane) at ratios 1:0.1-1 were used instead of pure monomer. The cross-linking level of the droplets prepared ranged from 0, 10, 20, 30, 40 to 50%.
(§3) Bare and nanoparticle-coated droplet samples were prepared by mixing 10 ml of the prepared emulsions with 10 ml of sonicated MilliQ water and silica aqueous dispersions, respectively. Salt concentrations were adjusted from between 10^−4 to 10^−1 M NaCl in order to control the nanoparticle layer structure as described above.
Cross-linked droplets (40% cross-linked) were chosen for study due to the fact that DBP partitioning coefficients were the highest at this cross-linking level, i.e. entrapment of DBP was the highest. […] Hydrophilic silica nanoparticle-coated capsules (created at 10^−2 M NaCl) and permeable, hydrophobic silica nanoparticle-coated capsules (created at 10^−4 M NaCl) have no effect on drug dissolution as opposed to semi-permeable hydrophilic/hydrophobic silica nanoparticle coatings around capsules (created at 10^−3-10^−1 M NaCl).
The rate limiting step for drug release from bare cross-linked droplets is diffusion through the internal matrix, therefore the diffusion-limited model is applicable (FIG. 12). Good linear fits were obtained for the first 120 minutes of release (FIG. 13). Calculated diffusion coefficients are presented in the table of FIG. 14 and are in agreement with typical values for drug diffusion in gels (e.g. 4.8 to 6.5 nm^2s^−1).

[3] = DBP release from liquid PDMS emulsion droplets (bare or silica nanoparticle-coated) into MilliQ water, sink conditions; format: physicochemical; conditions: for release rate constant (interfacial transport): hydrophobic nanoparticle-coated liquid PDMS droplets; for activation energy (Ea) for crossing the interfacial barrier: liquid PDMS droplets, Arrhenius, 22-37° C.
Experimental: FIG. 7 is a graph of Ln (1−Mt/M0) versus time for DBP release profiles from hydrophobic nanoparticle-coated liquid PDMS emulsion (φ=0.01) containing 0.025 wt % DBP, 900 ml MQ water as dissolution medium, where […]10^−3M NaCl; ⋄10^−2 M NaCl; Δ10^−1 M NaCl;
FIG. 8 is a graph showing Arrhenius plots for DBP release profiles from hydrophobic coated liquid PDMS emulsion droplets (φ=0.01) containing 0.025 wt % DBP, 900 ml MQ water as dissolution medium, where […]10^−1 M NaCl; ⋄10^−3M NaCl;
In experiments, dibutylphthalate (DBP) was chosen as a model drug because it is a liquid that is poorly soluble but readily miscible with PDMS. Release profiles of DBP were determined from both bare droplets (i.e. droplets not coated with nanoparticles) and coated droplets (i.e. droplets coated with hydrophilic particles and from droplets coated with hydrophobic particles).
as §2, §3
The release rate is even more retarded in the presence of a thick interfacial particle wall prepared at 10^−1 M NaCl. Thus, depending on salt concentration, hydrophobic silica nanoparticle coatings can provide a permeable or semi-permeable barrier.
The activation energy for crossing the interfacial barrier was determined using an Arrhenius approach. Release profiles for droplets coated at 10^−3 M NaCl and 10^−1 M NaCl were determined at four temperatures: 22° C., 27° C., 32° C. and 37° C. Kinetic rate constants were determined for each temperature from equation A above and from the plots Ln k vs. 1/T (FIG. 8) the activation energies (Ea) were calculated:
Aqueous solutions containing 1% diethoxy-dimethyl-silane (DEDMS), which was previously mixed with 0, 0.025, 0.1 and 0.25 wt % DBP in a nitrogen gas atmosphere, and 0.1% ammonia were sealed under nitrogen gas in a 250 ml reaction vessel, shaken vigorously for 30 seconds, and than tumbled at 30 rpm and 25° C. for 18 hours.

CCCCOC(=O)c1ccccc1C(=O)OCCCC [DBP, dibutylphthalate]
time after which amount in solution reduces to the normal solubility limit (duration of supersaturation) [1]: 10 h
time of peak soluble DBP concentration [1]: 2 h
time to achieve the equilibrium solubility level [1]: approximately 20 hours
activation energy for drug diffusion ([2]; bare cross-linked droplets): 127±15 kJmol^-1
time for release process to reach equilibrium ([2]; cross-linked PDMS droplets, 0.025 wt % DBP): approximately 2 hours
activation energy for drug diffusion ([2]; cross-linked droplets with hydrophobic silica nanoparticle coating, first value given): 155 kJmol^-1
diffusion coefficient ([2]; cross-linked droplets with hydrophobic silica nanoparticle coating, first value given (salt level not stated, presumably 10^-3 M NaCl)): 3.2 nm^2s^-1
activation energy for drug diffusion ([2]; cross-linked droplets with hydrophobic silica nanoparticle coating, second value given): 177±25 kJmol^-1
diffusion coefficient ([2]; cross-linked droplets with hydrophobic silica nanoparticle coating, second value given (salt level not stated, presumably 10^-1 M NaCl)): 2.4±0.5 nm^2s^-1
diffusion coefficient ([2]; cross-linked droplets, DBP concentration above the solubility limit (0.25 wt %), first 90 minutes): 3.5±0.5 nm^2s^-1
amount of DBP loaded still remaining in the droplets after 2 hours ([2]; cross-linked droplets, bare and coated with permeable silica nanoparticle coatings at 10^-4 M NaCl): 25%
amount of DBP loaded still remaining in the droplets after 2 hours ([2]; cross-linked droplets, silica coating at 10^-1 M NaCl): 46%
amount of DBP loaded still remaining in the droplets after 2 hours ([2]; cross-linked droplets, silica coating at 10^-3 M NaCl): 37%
drug release from within the bare droplets ([3]; bare liquid PDMS droplets, drug concentration significantly below its solubility limit in water): rapid and complete
release rate constant (interfacial transport) ([3]; at 10^-1 M NaCl): 0.05 nm^2s^-1
release rate constant (interfacial transport) ([3]; at 10^-3 and 10^-2 M NaCl): 0.3 nm^2s^-1
half release time ([3]; liquid PDMS droplets coated with hydrophobic silica nanoparticles at 10^-3 and 10^-2 M NaCl, 0.025 wt % DBP): approximately 18 hours
activation energy (Ea) for crossing the interfacial barrier ([3]; nanoparticle layer prepared at 10^-1 M NaCl): 630 kJmol^-1
activation energy (Ea) for crossing the interfacial barrier ([3]; nanoparticle layer prepared at 10^-3 M NaCl): 580 kJmol^-1
